# Assay results as given in patent US11576416B2, “Method of producing microparticles of the type having a crosslinked, aggregated protein matrix by spray drying” (Anabio Technologies Limited, priority 2015, dated 2023).
# How the values were obtained:
# Lb. acidophilus = test: Survival of probiotic bacteria during the drying process; type: cell-based; details: acid used as the weak acid in the mix
# Source text: The pH of the final product will dictate the type of weak acid to be utilised.
# experimental animals = details: cited from earlier work
SMILES,Viability of probiotic bacteria during the drying process (Lb. acidophilus),Hazard to man or animals (experimental animals; at the level succinic acid occurs naturally in foods),Amount tolerated by experimental animals (experimental animals; experimental animals)
O=C1O[C@H]([C@@H](O)CO)C(O)=C1O [Ascorbic acid],has not effect,–,–
"O=C(O)CCC(=O)O [succinic acid, butanedioic acid]",has not effect,no evidence that it is hazardous,several
